Values joined by “and” are separate entries in the source; they are usually repeats but may differ in a detail not shown here. Equal values may be shown once. “Also recorded” adds a separate entry of the source. Read-outs that look alike come from different tables or passages of the source.
Experiments:
[1] = Stability in cryopreserved hepatocytes, mouse; type: in vitro ADME; settings: for Compound Remaining (% of 0 min): Hepatocyte Stability Mouse, single replicates
Protocol: The final incubation volume was 500 μL. Two control compounds (verapamil and donepezil) were included for each microsomal species, along with the appropriate vehicle control. The reactions were terminated by transferring 50 μL of incubate to 100 μL methanol containing an internal standard (metoprolol) at appropriate time points (0, 10, 20, 40, 60, and 120 min for the test compound and 0, 5, 10, 20, 40, and 60 min for the control compounds). The termination plates were centrifuged at 4000 x g at 4°C for 30 min to precipitate the protein. The supernatants were then collected for analysis, and LC-MS/MS was used for detection purposes. The system consisted of an Acquity™ Binary Solvent Manager, Acquity™ 4-position heated column manager, 2777 Ultra High Pressure Autosampler, and a Xevo-TQ MS triple quadrupole mass spectrometer (Waters Ltd., Herts, UK). This process was carried out twice.

[2] = Metabolite profiling, human hepatocytes; type: in vitro ADME
Protocol: Suspensions of cryopreserved human, rat, and monkey hepatocytes were pooled from a minimum of three individuals. All cryopreserved hepatocytes were purchased from a commercial supplier. […] The cell density was 0.5 ×10^6 viable cells/mL. The final DMSO concentration during the incubation was 0.25%. Control incubations were performed in lysed cells to reveal any non-enzymatic degradation. Two control compounds were identified in each species. Samples (50 μL) were removed from the incubation mixture at 0, 10, 20, 40, 60, and 120 min and added to methanol containing an internal standard (100 μL) to stop the reaction. The samples were centrifuged (4000 x g at 4°C for 30 min) and the supernatants at each time point were pooled for analysis by LC MS/MS using Cyprotex generic methods. Following hepatocyte stability assays, the samples were utilized for metabolite profiling. […] Metabolites were characterized using a mass spectrometer comprising Waters Xevo QT of G2-S, Acquity Binary Solvent Manager, Acquity Column Manager, and 2777 Autosampler.

[3] = Single-dose pharmacokinetics in monkeys (p.o. and i.v.); type: in vivo, monkey; settings: for bioavailability: p.o. vs i.v., read-out: F (bioavailability)
[4] = Repeat-dose study in healthy Wistar Han rats, safety (14 and 56 days); type: in vivo, rat
BSEP = BSEP (Homo sapiens, UniProt O95342); experiment: in vitro; settings: membrane vesicle preparations (BSEP)
Sequence of BSEP (O95342 whole entry): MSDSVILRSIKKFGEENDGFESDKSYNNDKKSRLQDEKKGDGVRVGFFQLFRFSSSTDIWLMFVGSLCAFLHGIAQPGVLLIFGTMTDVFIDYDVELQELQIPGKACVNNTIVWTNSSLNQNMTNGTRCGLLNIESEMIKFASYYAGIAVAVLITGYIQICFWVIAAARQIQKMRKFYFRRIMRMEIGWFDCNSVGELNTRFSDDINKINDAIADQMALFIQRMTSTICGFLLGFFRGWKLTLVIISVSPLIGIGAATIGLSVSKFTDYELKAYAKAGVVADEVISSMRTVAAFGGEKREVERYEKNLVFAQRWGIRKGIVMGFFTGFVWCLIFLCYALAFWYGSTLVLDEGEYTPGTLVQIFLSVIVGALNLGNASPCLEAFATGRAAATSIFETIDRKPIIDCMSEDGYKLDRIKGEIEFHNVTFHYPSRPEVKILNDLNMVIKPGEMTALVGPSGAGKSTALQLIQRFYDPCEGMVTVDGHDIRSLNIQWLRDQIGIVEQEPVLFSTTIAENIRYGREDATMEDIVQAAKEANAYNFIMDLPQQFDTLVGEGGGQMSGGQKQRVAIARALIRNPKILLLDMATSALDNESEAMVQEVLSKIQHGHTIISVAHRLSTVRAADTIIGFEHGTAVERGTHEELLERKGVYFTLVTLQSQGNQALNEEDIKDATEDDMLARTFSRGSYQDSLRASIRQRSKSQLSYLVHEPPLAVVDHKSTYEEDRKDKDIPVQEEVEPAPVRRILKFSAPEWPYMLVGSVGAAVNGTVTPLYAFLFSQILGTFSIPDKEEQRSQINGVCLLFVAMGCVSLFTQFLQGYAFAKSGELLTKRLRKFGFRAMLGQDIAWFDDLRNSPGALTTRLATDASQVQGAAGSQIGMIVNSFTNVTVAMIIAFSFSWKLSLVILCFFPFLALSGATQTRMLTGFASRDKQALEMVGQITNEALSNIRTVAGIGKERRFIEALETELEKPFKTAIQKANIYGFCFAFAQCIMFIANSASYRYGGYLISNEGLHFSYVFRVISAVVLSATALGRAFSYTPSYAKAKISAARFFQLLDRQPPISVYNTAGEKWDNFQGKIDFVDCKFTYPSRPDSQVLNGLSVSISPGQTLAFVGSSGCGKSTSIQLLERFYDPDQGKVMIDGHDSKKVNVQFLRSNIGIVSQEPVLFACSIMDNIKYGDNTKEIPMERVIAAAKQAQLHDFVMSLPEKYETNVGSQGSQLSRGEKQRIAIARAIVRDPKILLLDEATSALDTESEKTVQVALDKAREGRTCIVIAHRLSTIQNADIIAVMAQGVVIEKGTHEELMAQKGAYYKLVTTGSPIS
Protocol: In the vesicular transport inhibition assay (for BSEP, MRP) compounds were incubated with membrane vesicle preparations and the probe substrate. Incubations were carried out in the presence of 4 mM ATP or AMP to distinguish between transporter-mediated uptake and passive diffusion into the vesicles. For MRP2 and MRP3, reactions were carried out in the presence of 2 mM glutathione. Compounds were added to the reaction mixture in 0.75 μL of solvent (1% of the final incubation volume). […] Reactions were initiated by the addition of 25 μL of 12 mM MgATP (or 12 mM AMP in assay buffer as a background control) and preincubated separately. Reactions were quenched by the addition of 200 μL of ice-cold washing buffer and immediate filtration via glass fiber filters mounted on a 96-well plate (filter plate). The filters were washed (5 × 200 μL of ice-cold washing buffer), dried, and the amount of substrate inside the filtered vesicles was determined by liquid scintillation counting.

[5] = cryopreserved hepatocytes (suspension), Mouse (CD) hepatocytes, mean n = 2

Q: With CC#C[C@@H](CC(=O)O)c1ccc(OCC(C)=C(C)C)cc1 [CPL207280] as the compound, how does the “Compound Remaining (% of 0 min)” value ([1]; 0 min) read?
A: 100 % of 0 min

Q: And the “Compound Remaining (% of 0 min)” value ([1]; 10 min)?
A: 92.6 % of 0 min and 92.7 % of 0 min

Q: What about the “Compound Remaining (% of 0 min)” value ([1]; 20 min) of the same compound?
A: 92.0 % of 0 min and 89.0 % of 0 min

Q: And the “Compound Remaining (% of 0 min)” value ([1]; 40 min)?
A: 86.8 % of 0 min and 80.9 % of 0 min

Q: What about the “Compound Remaining (% of 0 min)” value ([1]; 60 min) of the same compound?
A: 79.1 % of 0 min and 85.2 % of 0 min

Q: What about the “Compound Remaining (% of 0 min)” value ([1]; 120 min) of the same compound?
A: 81.9 % of 0 min and 77.1 % of 0 min

Q: What about the half-life at 3 μM [1, 5] of the same compound?
A: 6.73 h

Q: What about the microsomal CLint at 3 μM [1, 5] of the same compound?
A: 3.46 µL/min/mg

Q: And the “number of metabolites produced by human hepatocytes” value ([2]; human hepatocytes, 10 μM)?
A: 12

Q: What about the “human % of parent at 60 min” value ([2]; human hepatocytes, 10 μM CPL207280, 60 min, ND = not detected) of the same compound?
A: 8.49%

Q: What about the “number of metabolites identified” value ([2]; in all species (humans, rats, mice, monkeys, dogs), hepatocytes, 10 μM) of the same compound?
A: 23

Q: And the “Acyl glucuronide presence in human hepatocytes” value ([2]; summary table)?
A: No

Q: What about the Cmax ([3]; cynomolgus, monkey, plasma, 6 mg/kg, monkey, dose 6 mg/kg, Day 1, individual animals) of the same compound?
A: 199 ng/mL

Q: What about the plasma conc ([3]; monkey, 0,5 mg/kg i.v., 0.5 h, single animals) of the same compound?
A: 643.5 and 572.2

Q: And the plasma conc ([3]; monkey, 0,5 mg/kg i.v., 1 h, single animals)?
A: 149.8 and 119.5

Q: What about the plasma conc ([3]; monkey, 0,5 mg/kg i.v., 2 h, single animals) of the same compound?
A: 95.2 and 24.4 and 69.6

Q: What about the plasma conc ([3]; monkey, 0,5 mg/kg i.v., 4 h, single animals) of the same compound?
A: 49.5 and 52.7 and 23.2

Q: What about the plasma conc ([3]; monkey, 0,5 mg/kg i.v., 6 h, single animals) of the same compound?
A: 17.1 and 41 and 11.9

Q: What about the plasma conc ([3]; monkey, 0,5 mg/kg i.v., 8 h, single animals) of the same compound?
A: 17.5 and 13.5

Q: And the plasma conc ([3]; monkey, 0,5 mg/kg i.v., 12 h, single animals)?
A: 6.2 and 10.5 and 4

Q: What about the plasma conc ([3]; monkey, 0,5 mg/kg i.v., 24 h, single animals) of the same compound?
A: 1.1 and 1.6 and 0

Q: And the plasma conc ([3]; monkey, 1,5 mg/kg p.o., 0 h, single animals)?
A: 0

Q: And the plasma conc ([3]; monkey, 1,5 mg/kg p.o., 0.5 h, single animals)?
A: 806.5 and 1491 and 408.8

Q: What about the plasma conc ([3]; monkey, 1,5 mg/kg p.o., 1 h, single animals) of the same compound?
A: 1309.1 and 1299.9

Q: What about the plasma conc ([3]; monkey, 1,5 mg/kg p.o., 2 h, single animals) of the same compound?
A: 1251.6 and 605.2 and 1177.7

Q: What about the plasma conc ([3]; monkey, 1,5 mg/kg p.o., 4 h, single animals) of the same compound?
A: 75.2 and 203.9 and 54.2

Q: And the plasma conc ([3]; monkey, 1,5 mg/kg p.o., 8 h, single animals)?
A: 31 and 109.7 and 13.2

Q: And the plasma conc ([3]; monkey, 1,5 mg/kg p.o., 12 h, single animals)?
A: 13.7 and 53.4 and 8.1

Q: What about the plasma conc ([3]; monkey, 1,5 mg/kg p.o., 24 h, single animals) of the same compound?
A: 1.6 and 5.3 and 0

Q: And the “exposure - AUC” value ([3]; monkey, dose 6 mg/kg, Day 1, individual animals, 6 mg/kg)?
A: 31225 ng·h/mL and 16287 ng·h/mL

Q: What about the AUC ([3]; monkey, plasma, 6 mg/kg, monkey, dose 6 mg/kg, Day 1, individual animals, read-out: exposure - AUC) of the same compound?
A: 18200 ng·h/mL

Q: What about the concentration at 0.5 h ([3]; monkey, plasma, intravenous, 0.5 mg/kg, monkey, 0,5 mg/kg i.v., 0.5 h, single animals, read-out: plasma conc) of the same compound?
A: 704 ng/mL

Q: What about the concentration at 1 h ([3]; monkey, plasma, intravenous, 0.5 mg/kg, monkey, 0,5 mg/kg i.v., 1 h, single animals, read-out: plasma conc) of the same compound?
A: 198 ng/mL

Q: And the concentration at 8 h ([3]; monkey, plasma, intravenous, 0.5 mg/kg, monkey, 0,5 mg/kg i.v., 8 h, single animals, read-out: plasma conc)?
A: 10.2 ng/mL

Q: What about the k el ([3]; monkey, plasma, intravenous, monkeys, single dose) of the same compound?
A: 5.56e-05 s⁻¹

Q: And the Cmax ([3]; monkey, plasma, iv, 0.5 mg/kg, monkeys, 0,5 mg/kg i.v., n = 3)?
A: 3120 ± 161 ng/mL

Q: What about the Tmax ([3]; monkey, plasma, iv, 0.5 mg/kg, monkeys, 0,5 mg/kg i.v.) of the same compound?
A: 0.083 h

Q: What about the AUC ([3]; monkey, plasma, iv, 0.5 mg/kg, monkeys, 0,5 mg/kg i.v., read-out: AUC) of the same compound?
A: 1370 ± 194 ng·h/mL

Q: And the concentration at 0 h ([3]; monkey, plasma, oral, 1.5 mg/kg, monkey, 1,5 mg/kg p.o., 0 h, single animals, read-out: plasma conc)?
A: 0 ng/mL

Q: What about the concentration at 1 h ([3]; monkey, plasma, oral, 1.5 mg/kg, monkey, 1,5 mg/kg p.o., 1 h, single animals, read-out: plasma conc) of the same compound?
A: 2250 ng/mL

Q: And the bioavailability ([3]; monkey, plasma, oral, 1.5 mg/kg, monkeys)?
A: ~99%

Q: What about the Cmax ([3]; monkey, plasma, po, 1.5 mg/kg, monkeys, 1,5 mg/kg p.o., n = 3) of the same compound?
A: 1680 ± 502 ng/mL

Q: What about the Tmax ([3]; monkey, plasma, po, 1.5 mg/kg, monkeys, 1,5 mg/kg p.o.) of the same compound?
A: 1 h

Q: And the AUC ([3]; monkey, plasma, po, 1.5 mg/kg, monkeys, 1,5 mg/kg p.o., read-out: AUC)?
A: 4060 ± 794 ng·h/mL

Q: What about the bioavailability ([3]; monkey, plasma, po, 1.5 mg/kg, monkeys) of the same compound?
A: 99%

Q: And the MTD at 14 days ([4]; both sexes, Wistar Han, rat, in vivo, oral, rats, 14-day study, read-out: maximum tolerated dose (MTD))?
A: 600 mg/kg

Q: What about the mortality ([4]; rats, 1200 mg/kg group, 14-day study) of the same compound?
A: death of one subject occurred on day 7

Q: And the ALT ([4]; rats, 1200 mg/kg, 14 days, fasted blood, significant increase from 34.2±8.5, in U/L (unit assumed))?
A: 60.0±8.0

Q: What about the ALP ([4]; rats, 1200 mg/kg, 14 days, fasted blood, significant increase from 86.3±30.2, in U/L (unit assumed)) of the same compound?
A: 136.1±55.3

Q: And the “ALT, AST and ALP” value ([4]; rats, 14-day study, doses up to 600 mg/kg)?
A: no ALT, AST, and ALP elevation

Q: What about the liver histopathology ([4]; rats, 14 days) of the same compound?
A: no microscopic changes in the liver tissue

Q: What about the liver histopathology ([4]; rats, 56 days) of the same compound?
A: mild to moderate hypertrophy of centrilobular hepatocytes at doses ≥ 150 mg/kg/day; also recorded: minimal to mild centrilobular hepatocyte hypertrophy

Q: What about the “liver injury markers, TBA and T-BIL” value ([4]; rats, 56 days, 50, 150 and 500 mg/kg) of the same compound?
A: none of the previously monitored markers nor TBA and T-BIL were altered

Q: And the “reversibility of hepatocyte hypertrophy / liver weight increase” value ([4]; rats, 56 days, recovery period)?
A: reversible after 28 days

Q: What about the “liver mass as a percentage of body weight” value ([4]; rats, all groups (300, 600, 1200 mg/kg/day), 14 days) of the same compound?
A: dose-dependent enlargement of the liver

Q: And the “Propensity to elevate liver enzyme damage markers” value ([4]; summary comparison CPL207280 vs TAK-875 (TAK-875: ref 25), sign spans both columns)?
A: <

Q: What about the “Propensity to elevate bile acids and bilirubin in plasma” value ([4]; summary table) of the same compound?
A: No

Q: And the IC50 (BSEP)?
A: > 100 µM

— paper PMC8459971, “Evaluation of the hepatotoxicity of the novel GPR40 (FFAR1) agonist CPL207280 in the rat and monkey” (PLoS ONE, 2021)
